# Results: patent publication US8658791B2, “2-substituted-6-amino-5-alkyl, alkenyl or alkynyl-4-pyrimidinecarboxylic acids and 6-substituted-4-amino-3-alkyl, alkenyl or alkynyl picolinic acids and their use as herbicides” (Dow AgroSciences, LLC, priority 2007, dated 2014)
# What was measured:
# Type in all cases: in vivo
# rice (Oryza sativa) = assay: General postemergence herbicidal activity, ORYSA; settings: Oryza sativa, post-emergence, 336 h, postemergence spray, visual score after 14 days, 0 = no injury, 100 = complete kill, read-out: Post-emergent Weed Control ORYSA; for plant injury at 140 g/ha: 140 g ai/ha; for plant injury at 280 g/ha: 280 g ai/ha
# Description: (§1) Seeds or nutlets of the desired test plant species were planted in Sun Gro MetroMix® 306 planting mixture, which typically has a pH of 6.0 to 6.8 and an organic matter content of about 30 percent, in plastic pots with a surface area of 103 square centimeters. When required to ensure good germination and healthy plants, a fungicide treatment and/or other chemical or physical treatment was applied. The plants were grown for 7-21 days in a greenhouse with an approximate 15 hour photoperiod which was maintained at about 23-29° C. during the day and 22-28° C. during the night. Nutrients and water were added on a regular basis and supplemental lighting was provided with overhead metal halide 1000-Watt lamps as necessary. The plants were employed for testing when they reached the first or second true leaf stage.
# (§2) A weighed amount, determined by the highest rate to be tested, of each test compound was placed in a 25 mL glass vial and was dissolved in 4 mL of a 97:3 v/v (volume/volume) mixture of acetone and dimethyl sulfoxide (DMSO) to obtain concentrated stock solutions. […] The concentrated stock solutions obtained were diluted with 20 mL of an aqueous mixture containing acetone, water, isopropyl alcohol, DMSO, Atplus 411F crop oil concentrate, and Triton® X-155 surfactant in a 48.5:39:10:1.5:1.0:0.02 v/v ratio to obtain spray solutions containing the highest application rates. Additional application rates were obtained by serial dilution of 12 mL of the high rate solution into a solution containing 2 mL of 97:3 v/v (volume/volume) mixture of acetone and dimethyl sulfoxide (DMSO) and 10 mL of an aqueous mixture containing acetone, water, isopropyl alcohol, DMSO, Atplus 411F crop oil concentrate, and Triton X-155 surfactant in a 48.5:39:10:1.5:1.0:0.02 v/v ratio to obtain 1/2X, 1/4X, 1/8X and 1/16X rates of the high rate. Compound requirements are based upon a 12 mL application volume at a rate of 187 L/ha. Formulated compounds were applied to the plant material with an overhead Mandel track sprayer equipped with a 8002E nozzles calibrated to deliver 187 L/ha over an application area of 0.503 square meters at a spray height of 18 inches (43 cm) above the average plant canopy height. Control plants were sprayed in the same manner with the solvent blank.
# (§3) The treated plants and control plants were placed in a greenhouse as described above and watered by sub-irrigation to prevent wash-off of the test compounds. After 14 days, the condition of the test plants as compared with that of the untreated plants was determined visually and scored on a scale of 0 to 100 percent where 0 corresponds to no injury and 100 corresponds to complete kill.
# [1] = system: barnyardgrass (Echinochloa crus-galli); assay: General postemergence herbicidal activity, ECHCG; settings: Echinochloa crus-galli, post-emergence, 336 h, postemergence spray, visual score after 14 days, 0 = no injury, 100 = complete kill, read-out: Post-emergent Weed Control ECHCG; for pest or weed control at 140 g/ha: 140 g ai/ha; for pest or weed control at 280 g/ha: 280 g ai/ha
# Description: as §1, §2, §3
# [2] = system: velvetleaf (Abutilon theophrasti); assay: General postemergence herbicidal activity, ABUTH; settings: Abutilon theophrasti, post-emergence, 336 h, postemergence spray, visual score after 14 days, 0 = no injury, 100 = complete kill, read-out: Post-emergent Weed Control ABUTH; for pest or weed control at 140 g/ha: 140 g ai/ha; for pest or weed control at 280 g/ha: 280 g ai/ha
# Description: as §1, §2, §3
# [3] = system: wild poinsettia (Euphorbia heterophylla); assay: General postemergence herbicidal activity, EPHHL; settings: Euphorbia heterophylla, post-emergence, 336 h, postemergence spray, visual score after 14 days, 0 = no injury, 100 = complete kill, read-out: Post-emergent Weed Control EPHHL; for pest or weed control at 140 g/ha: 140 g ai/ha; for pest or weed control at 280 g/ha: 280 g ai/ha
# Description: as §1, §2, §3
# [4] = system: lambsquarter (Chenopodium album); assay: General postemergence herbicidal activity, CHEAL; settings: Chenopodium album, post-emergence, 336 h, postemergence spray, visual score after 14 days, 0 = no injury, 100 = complete kill, read-out: Post-emergent Weed Control CHEAL; for pest or weed control at 140 g/ha: 140 g ai/ha; for pest or weed control at 280 g/ha: 280 g ai/ha
# Description: as §1, §2, §3
Structure (SMILES),plant injury at 140 g/ha (rice (Oryza sativa)),pest or weed control at 140 g/ha [1],pest or weed control at 140 g/ha [2],pest or weed control at 140 g/ha [3],pest or weed control at 140 g/ha [4],plant injury at 280 g/ha (rice (Oryza sativa)),pest or weed control at 280 g/ha [1],pest or weed control at 280 g/ha [2],pest or weed control at 280 g/ha [3],pest or weed control at 280 g/ha [4],other results
"C=C(F)c1c(N)nc(-c2ccc(Cl)c(OC)c2F)nc1C(=O)OC [Compound 9, 6-Amino-2-(4-chloro-2-fluoro-3-methoxyphenyl)-5-(1-fluorovinyl) pyrimidine-4-carboxylic acid methyl ester]",0%,90%,90%,100%,95%,,,,,,
"C=C(OCC)c1c(N)nc(-c2ccc(Cl)c(OC)c2F)nc1C(=O)OC [Compound 10, 6-Amino-2-(4-chloro-2-fluoro-3-methoxyphenyl)-5-(1-ethoxyvinyl)pyrimidine-4-carboxylic acid methyl ester]",,,,,,0%,0%,50%,75%,40%,
"C=Cc1c(N)nc(-c2cc(F)c(Cl)cc2F)nc1C(=O)OC [Compound 12, 6-Amino-2-(4-chloro-2,5-difluorophenyl)-5-vinylpyrimidine-4-carboxylic acid methyl ester]",0%,50%,100%,50%,100%,,,,,,
"C=Cc1c(N)nc(-c2cc(C)c(Cl)cc2F)nc1C(=O)OC [Compound 13, 6-Amino-2-(4-chloro-2-fluoro-5-methylphenyl)-5-vinylpyrimidine-4-carboxylic acid methyl ester]",,,,,,0%,0%,90%,60%,100%,
"C=Cc1c(N)nc(-c2ccc(Cl)c(C(F)F)c2F)nc1C(=O)OC [Compound 15, 6-Amino-2-(4-chloro-3-difluoromethyl-2-fluorophenyl)-5-vinylpyrimidine-4-carboxylic acid methyl ester]",5%,100%,100%,100%,100%,,,,,,
"C=Cc1c(N)nc(-c2ccc(Cl)c(F)c2)nc1C(=O)OC [Compound 16, 6-Amino-2-(4-chloro-3-fluorophenyl)-5-vinylpyrimidine-4-carboxylic acid methyl ester]",0%,0%,100%,80%,95%,,,,,,
"C=Cc1c(N)nc(-c2ccc(Cl)c(OC(F)F)c2F)nc1C(=O)OC [Compound 17, 6-Amino-2-(4-chloro-3-difluoromethoxy-2-fluorophenyl)-5-vinylpyrimidine-4-carboxylic acid methyl ester]",,,,,,0%,100%,100%,100%,100%,
"C=Cc1c(N)nc(-c2ccc(Cl)c(OC)c2Cl)nc1C(=O)OC [Compound 18, 6-Amino-2-(2,4-dichloro-3-methoxyphenyl)-5-vinylpyrimidine-4-carboxylic acid methyl ester]",0%,90%,100%,40%,100%,,,,,,
"C=Cc1c(N)nc(-c2ccc(Cl)c(N(C)C)c2F)nc1C(=O)OC [Compound 19, 6-Amino-2-(4-chloro-3-dimethylamino-2-fluorophenyl)-5-vinylpyrimidine-4-carboxylic acid methyl ester]",,,,,,85%,85%,100%,100%,100%,
"C=Cc1c(N)nc(-c2ccc(Cl)c(C(C)F)c2)nc1C(=O)OC (stereo not drawn) [Compound 20, 6-Amino-2-[4-chloro-3-(1-fluoroethyl)phenyl]-5-vinylpyrimidine-4-carboxylic acid methyl ester]",,,,,,0%,70%,85%,100%,100%,
"C/C=C/c1c(N)nc(-c2ccc(Cl)c(OC)c2F)nc1C(=O)OC [Compound 22, 6-Amino-2-(4-chloro-2-fluoro-3-methoxyphenyl)-5-((E)-propenyl)pyrimidine-4-carboxylic acid methyl ester]",,,,,,,,,,,plant injury at 70 g/ha (rice (Oryza sativa); 70 g ai/ha): 0%; pest or weed control at 70 g/ha ([1]; 70 g ai/ha): 95%; pest or weed control at 70 g/ha ([2]; 70 g ai/ha): 85%; pest or weed control at 70 g/ha ([3]; 70 g ai/ha): 100%; pest or weed control at 70 g/ha ([4]; 70 g ai/ha): 95%
"C#Cc1c(N)nc(-c2ccc(Cl)c(OC)c2F)nc1C(=O)OC [Compound 24, 6-Amino-2-(4-chloro-2-fluoro-3-methoxyphenyl)-5-ethynyl-pyrimidine-4-carboxylic acid methyl ester]",0%,70%,80%,85%,85%,,,,,,
"C=Cc1c(N)nc(-c2ccc(Cl)c(F)c2)nc1C(=O)O [Compound 49, 6-Amino-2-(4-chloro-3-fluorophenyl)-5-vinylpyrimidine-4-carboxylic acid]",0%,,65%,100%,100%,,,,,,
"C=Cc1c(C(=O)O)nc(-c2ccc(Cl)cc2)c(F)c1N [Compound 61, 4-Amino-6-(4-chlorophenyl)-5-fluoro-3-vinylpyridine-2-carboxylic acid]",50%,,100%,95%,100%,,,,,,
"C=Cc1c(N)nc(-c2ccc(Cl)c(OC)c2F)nc1C(=O)OCCCC [Compound 62, 6-Amino-2-(4-chloro-2-fluoro-3-methoxyphenyl)-5-vinyl-pyrimidine-4-carboxylic acid butyl ester]",25%,,100%,100%,100%,,,,,,
